Laboratory results as given in patent US9790211B2, “5-amino-quinoline-8-carboxamide derivatives as 5-HT4 receptor agonists” (SUVEN LIFE SCIENCES LIMITED, priority 2013, dated 2017).

What was measured:
[1] = Rodent brain penetration study; format: in vivo, Male Wistar rats; settings: male, Wistar, rat, brain, po, 3 mg/kg, 3 mg/kg oral (gavage), read-out: Single dose Brain Penetration (Cb/Cp)
Description: Male Wistar rats (225±25 grams) were used as experimental animals. Three animals were housed in each cage. Animals were given water and food ad libitum throughout the experiment and maintained on a 12 hours light/dark cycle. Brain penetration was determined in discrete manner in rats. One day prior to dosing day, male wistar rats (225-250 grams) were acclimatized. After acclimatization the rats were grouped according to their weight. In each group, 3 animals were kept in individual cage and allowed free access to food and water. At each time point (0.50, 1, and 2 hours) n=3 animals were used. The compounds of formula (I) were suitably preformulated and administered orally at (free base equivalent) 3 mg/kg. Blood samples were removed via, cardiac puncture by using isoflurane anesthesia. The animals were sacrificed to collect brain tissue. Plasma was separated and brain samples were homogenized and stored frozen at −20° C. until analysis. The concentrations of the compounds of formula (I) in plasma and brain were determined using LC-MS/MS method. The compounds of formula (I) were quantified in plasma and brain homogenate by qualified LC-MS/MS method using suitable extraction technique. The compounds of formula (I) were quantified in the calibration range of 1-500 ng/mL in plasma and brain homogenate. Study samples were analyzed using calibration samples in the batch and quality control samples spread across the batch. Extent of brain-plasma ratio was calculated (Cb/Cp).

Male Wistar rats = assay: Object recognition task model; format: in vivo; settings: dose mg/kg: Ex 1 0.1, Ex 2 0.03, Ex 4 0.03, Ex 13 1, Ex 23 0.01, Ex 37 10, Ex 43 0.3; for Exploration time mean ± S.E.M, Familiar object / Exploration time mean ± S.E.M, Novel object: choice trial T2, p.o.; for Inference: p.o.
Description: The cognition enhancing properties of compounds of this invention were estimated by using this model.
Male Wistar rats (230-280 grams) were used as experimental animals. Four animals were housed in each cage. Animals were kept on 20% food deprivation before one day and given water ad libitum throughout the experiment and maintained on a 12 hours light/dark cycle. Also the rats were habituated to individual arenas for 1 hour in the absence of any objects.
One group of 12 rats received vehicle (1 mL/Kg) orally and another set of animals received compound of the formula (I) either orally or i.p., before one hour of the familiar (T1) and choice trial (T2).
The experiment was carried out in a 50×50×50 cm open field made up of acrylic. In the familiarization phase, (T1), the rats were placed individually in the open field for 3 minutes, in which two identical objects (plastic bottles, 12.5 cm height×5.5 cm diameter) covered in yellow masking tape alone (a1 and a2) were positioned in two adjacent corners, 10 cms from the walls. After 24 hours of the (T1) trial for long-term memory test, the same rats were placed in the same arena as they were placed in T1 trial. Choice phase (T2) rats were allowed to explore the open field for 3 minutes in presence of one familiar object (a3) and one novel object (b) (Amber color glass bottle, 12 cm high and 5 cm in diameter). Familiar objects presented similar textures, colors and sizes. During the T1 and T2 trial, explorations of each object (defined as sniffing, licking, chewing or having moving vibrissae whilst directing the nose towards the object at a distance of less than 1 cm) were recorded separately by stopwatch. Sitting on an object was not regarded as exploratory activity, however, it was rarely observed.
T1 is the total time spent exploring the familiar objects (a1+a2).
T2 is the total time spent exploring the familiar object and novel object (a3+b).
The object recognition test was performed as described by Behaviour Brain Research, (1988), 31, 47-59.

[2] = target: T1, recombinant human 5-HT4 receptor (Homo sapiens, UniProt Q13639); assay: Determination of EC50 values for 5-HT4 receptor (CHO cells, pCRE-Luc reporter); format: cell-based; settings: for Emax: CHO; for EC50: CHO cells, human 5-HT4 receptor, luciferase reporter, 4 hours incubation
T1 construct: expressed in transfected cells
T1 sequence (Q13639 whole entry): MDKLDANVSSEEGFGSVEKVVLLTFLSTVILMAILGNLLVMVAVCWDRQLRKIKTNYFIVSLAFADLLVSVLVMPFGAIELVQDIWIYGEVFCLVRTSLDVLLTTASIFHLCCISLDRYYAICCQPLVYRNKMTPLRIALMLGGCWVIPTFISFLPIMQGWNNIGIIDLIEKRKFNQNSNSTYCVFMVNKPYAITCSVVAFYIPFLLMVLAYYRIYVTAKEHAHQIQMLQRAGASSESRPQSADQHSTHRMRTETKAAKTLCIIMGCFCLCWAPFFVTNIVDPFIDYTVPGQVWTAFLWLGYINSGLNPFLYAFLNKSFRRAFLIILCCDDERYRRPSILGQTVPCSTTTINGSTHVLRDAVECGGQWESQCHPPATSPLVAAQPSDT
Description: Determination of EC50 Values for 5-HT4 Receptor
A stable CHO cell line expressing recombinant human 5-HT4 receptor and pCRE-Luc reporter system was used for cell-based assay. The assay offers a non-radioactive based approach to determine binding of a compound to GPCRs. In this specific assay, the level of intracellular cyclic AMP, which is modulated by activation, or inhibition of the receptor is measured. The recombinant cells harbor luciferase reporter gene under the control of cAMP response element.
The above cells were grown in 96 well clear bottom white plates in Hams F12 medium containing 10% fetal bovine serum (FBS). Prior to the addition of compounds or standard agonist, cells were serum starved overnight. Increasing concentrations of test compounds were added in OptiMEM medium to the cells. The incubation was continued at 37° C. in CO2 incubator for 4 hours. Medium was removed and cells were washed with phosphate buffered saline. The cells were lysed and luciferase activity was measured in a Luminometer. Luminescence units were plotted against the compound concentrations using Graphpad software.

[3] = Rodent pharmacokinetic study; format: in vivo, Male wistar rats; settings: plasma, Wistar/Male rat; for bioavailability: 3 mg/kg oral vs 1 mg/kg intravenous
Description: Male wistar rats (225±25 grams) were used as experimental animals. Three to five animals were housed in each cage. Two days prior to dosing day, male wistar rats (225-250 grams) were anesthetized with isoflurane for surgical placement of jugular vein catheter. Animals were fasted over night before oral dosing (p.o) and food pellets were allowed 2 hours post dosing, whereas during intravenous dosing food and water were provided as ad libitum. Three rats were dosed with compounds of formula (I) (3 mg/kg) orally and intravenously (1 mg/kg).
At each time point blood was collected through jugular vein and immediately replenish with an equivalent volume of normal saline from freely moving rats. Collected blood was transferred into a labeled eppendr off containing 10 μL of heparin as anticoagulant. Typically blood samples were collected as following time points: Pre dose, 0.08 (only i.v.), 0.25, 0.5, 1, 2, 4, 6, 8, and 24 hours post dose (n=3). Blood was centrifuged at 4000 rpm for 10 minutes. Plasma was prepared and stored frozen at −20° C. until analysis. The concentrations of the compounds of formula (I) were quantified in plasma by qualified LC-MS/MS method using suitable extraction technique. The compounds of formula (I) were quantified in the calibration range around 2-2000 ng/mL in plasma. Study samples were analyzed using calibration samples in the batch and quality control samples spread across the batch.
Pharmacokinetic parameters Cmax, Tmax, AUC1, T1/2 and Bioavailability were calculated by non-compartmental model using standard non-coinpartmental model by using WinNonLin 5.0.1 or Phoenix WinNonlin 6.2 version Software package.

[4] = tested on: Scopolamine Induced amnesia; assay: Radial arm maze; format: in vivo; settings: p.o., rats
Source text: The cognition enhancing properties of compounds of formula (I) of this invention were estimated by using this model.
Radial arm maze consists of a central hub of 45 cm diameter. Each arm was of dimension 42.5×15×24 cm. The maze was elevated to a height of 1 m above the ground. The animals were placed on a restricted diet until they reached approximately 85% of their free feeding weight. During this diet restriction period animals were habituated to the novel feed (pellets). Once the rats reached approximately 85% of their free feeding weight rats were habituated to the maze on the 1st and 2nd day. […] Animals were randomized on day 2. On the subsequent days the treatment was given as per the allotment: Each animal was introduced into the maze individually for a period of 10 minutes. The arms were baited only once and the animal had to learn the rule that repeated arm entries would not be rewarded. The trial ended once the rat had visited 16 arms or 10 minutes were over or all the pellets were eaten. The arm entries were recorded using the software. Once the trial was over the rat was removed and the maze was cleaned using soap water.

sAPPα = assay: Estimation of mice brain cortical sAPPα levels (ELISA); format: in vivo; settings: s.c., 60 minutes post treatment
Description: The control group of mice received sterile water for injection subcutaneously (s.c.). […] Mice were sacrificed 60 minutes after the drug injection by cervical dislocation, the brains were quickly isolated and the cortex was dissected at −20° C. The cortex was immediately kept on a dry ice and weighed before being stored at −80° C. until Enzyme-linked immunosorbent assay (ELISA) was performed. • 1. Brain tissues were thawed and Tris Buffer Saline containing protease inhibitors (TBS, 4 times by volume) added (0.8 mL/200 mg tissues). • 2. Brain tissue samples were homogenized using glass-Teflon homogenizer at 10 strokes. The resulting homogenates were centrifuged at 15,000 rpm at 4° C. for 60 minutes. • 3. The supernatant was discarded and to the precipitate, 4 times volume (0.8 mL/200 mg tissues) of TBS was added. Again homogenized followed by centrifugation at 15,000 rpm 4° C. for 30 minutes. • 4. From the above centrifuged mixture the supernatant was discarded and 10 times volume of 6M Guanidine-HCl in 50 mM Tris buffer pH: 7.6 (500 μL/50 mg tissues) was added. The resulting solution was sonicated for 5 seconds, 4 times. • 5. Resulting mixture was incubated at the RT for 30 minutes, followed by centrifugation at 15,000 rpm, 4° C. for 30 minutes. From this 5 μL of supernatant solution was taken and diluted with 155 μL of EIA buffer (dilution factor 32). Measurement of sAPPα by ELISA Kit: To investigate the role of an acute treatment of test compound on sAPPα levels, we measured the expression of this protein in homogenates from the cortex of treated and untreated mice by ELISA assay. The entire procedure was followed as described in the ELISA kit manual (Mouse/Rat sAPPα ELISA, Catalog Number: JP27415, […], Hamburg, Germany). Statistical analyses were performed using the Graph Pad Prism (Version 4). Data are Mean±SD of sAPPa levels expressed as percentage of control values (mice which received water for injection). Values were compared between the different groups by using unpaired t test. The significance level was set at *p<0.05; […]; ***<0.001.

SMILES | Kp [1] | Exploration time mean ± S.E.M, Familiar object (Male Wistar rats) [s] | Exploration time mean ± S.E.M, Novel object (Male Wistar rats) [s] | Inference (Male Wistar rats) | Emax [2] [%] | EC50 [2] [nM] | AUC(0-t) ([3]; 1 mg/kg intravenous (bolus)) [ng·h/mL] | Cmax ([3]; 1 mg/kg intravenous (bolus)) [ng/mL] | Tmax ([3]; 1 mg/kg intravenous (bolus)) [min] | half-life ([3]; 1 mg/kg intravenous (bolus)) [min] | AUC(0-t) ([3]; 3 mg/kg oral (gavage)) [ng·h/mL] | Cmax ([3]; 3 mg/kg oral (gavage)) [ng/mL] | Tmax ([3]; 3 mg/kg oral (gavage)) [min] | half-life ([3]; 3 mg/kg oral (gavage)) [min] | bioavailability [3] [%] | Reversal of Scopolamine Induced amnesia - Effective dose range [4] | increase in the mice brain cortical sAPPα levels (sAPPα; 0.3 mg/kg) [%] | increase in the mice brain cortical sAPPα levels (sAPPα; 1.0 mg/kg) [%]
Nc1c(Cl)cc(C(=O)NCC2C3CN(CC4CCOCC4)CC23)c2ncccc12.O=C(O)C(O)C(O)C(=O)O (stereo not drawn) [Example 2, 5-Amino-6-chloro-N-{[3-(tetrahydro-2H-pyran-4-ylmethyl)-3-azabicyclo[3.1.0]hex-6-yl]methyl}quinoline-8-carboxamide L(+)-tartarate] | 1.31 ± 0.1 | 7.46 ± 1.30 | 15.75 ± 1.65 | Active | 59 | 0.5 | 284 ± 10 | 252 ± 30 | 4.8 | 96 ± 6 | 531 ± 51 | 140 ± 24 | 25.2 ± 8.4 | 72 ± 6 | 62 ± 6 | – | – | –
Nc1c(Cl)cc(C(=O)NCC2CCN(CC3(O)CCOCC3)CC2)c2ncccc12.O=C(O)C(O)C(O)C(=O)O [Example 23, 5-Amino-6-chloro-N-{[1-(4-hydroxytetrahydro-2H-pyran-4-ylmethyl)-4-piperidinyl]methyl}quinoline-8-carboxamide L(+)-tartarate] | – | 8.80 ± 1.46 | 16.80 ± 2.45 | Active | 67 | – | – | – | – | – | – | – | – | – | – | 0.01-0.1 mg/kg, p.o. | 42 | 33
Nc1c(Cl)cc(C(=O)NCC2(F)CCN(CC3(O)CCOCC3)CC2)c2ncccc12.O=C(O)C(O)C(O)C(=O)O [Example 27, 5-Amino-6-chloro-N-{[4-fluoro-1-(4-hydroxytetrahydro-2H-pyran-4-ylmethyl)-4-piperidinyl]methyl}quinoline-8-carboxamide L(+)-tartarate] | 0.4 ± 0.02 | – | – | – | 63 | 0.6 | 401 ± 15 | 448 ± 41 | 4.8 | 102 ± 24 | 236 ± 72 | 173 ± 48 | 15 | – | 20 ± 6 | – | – | –
CC(C)(O)CN1CCC(F)(CNC(=O)c2cc(Cl)c(N)c3cccnc23)CC1.O=C(O)C(O)C(O)C(=O)O [Example 37, 5-Amino-6-chloro-N-{[4-fluoro-1-(2-hydroxy-2-methylpropyl)-4-piperidinyl]methyl} quinoline-8-carboxamide L(+)-tartarate] | 0.61 ± 0.07 | 8.45 ± 1.65 | 17.81 ± 1.42 | Active | 62 | 2.2 | 274 ± 25 | 324 ± 52 | 4.8 | 114 ± 6 | 200 ± 49 | 137 ± 37 | 15 | 78 ± 18 | 24 ± 6 | – | – | –
CC(C)(O)CN1CCC(F)(CNC(=O)c2cc(F)c(N)c3cccnc23)CC1.O=C(O)C(O)C(O)C(=O)O [Example 43, 5-Amino-6-fluoro-N-{[4-fluoro-1-(2-hydroxy-2-methylpropyl)-4-piperidinyl]methyl} quinoline-8-carboxamide L(+)-tartarate] | 0.93 ± 0.26 | 9.30 ± 0.93 | 16.09 ± 2.63 | Active | 43 | 2.9 | 362 ± 83 | 306 ± 47 | 4.8 | 114 ± 54 | 373 ± 39 | 231 ± 40 | 19.8 ± 8.4 | 204 ± 132 | 34 ± 4 | – | – | –
